Data as given in paper PMC6272981, “A Selective Cyclic Peptidic Human SIRT5 Inhibitor” (Molecules, 2016).
Values joined by “and” are separate entries in the source; they are usually repeats but may differ in a detail not shown here. Identical values can stand only once. *1 amine or outer side, *2 acyl side, *3 side chain or, on linkers, in order; H or OH if unused. Where a SMILES comes first, the peptide text is derived from it. Bridges are numbered along the chain shown (N, C = ends). [ ]: non-standard residue; d: D form. Suberoyl(Gly)2 = O=C(CCCCCCC(=O)NCC(=O)[*:2])NCC(=O)[*:1]; X1 = O=C(O)CCNC(=S)NCCCC[C@H](N[*:1])C(=O)[*:2]; Suberoyl = O=C(CCCCCCC(=O)[*:2])[*:1]

Columns and labels:
[1] = biological target: T1, human recombinant His6-SIRT6 (Homo sapiens, UniProt Q8N6T7); assay: HPLC-based in vitro sirtuin inhibition assay, SIRT6 (demyristoylation); assay type: biochemical; settings: His6-SIRT6 313 nM, 0.2 mM β-NAD+, 0.02 mM myristoyl-lysine TNFα peptide substrate, 37 °C, 12 min; Dixon plots
T1 construct: purchased Cayman Chemical (Ann Arbor, Michigan, USA)
T1 sequence (Q8N6T7 whole entry): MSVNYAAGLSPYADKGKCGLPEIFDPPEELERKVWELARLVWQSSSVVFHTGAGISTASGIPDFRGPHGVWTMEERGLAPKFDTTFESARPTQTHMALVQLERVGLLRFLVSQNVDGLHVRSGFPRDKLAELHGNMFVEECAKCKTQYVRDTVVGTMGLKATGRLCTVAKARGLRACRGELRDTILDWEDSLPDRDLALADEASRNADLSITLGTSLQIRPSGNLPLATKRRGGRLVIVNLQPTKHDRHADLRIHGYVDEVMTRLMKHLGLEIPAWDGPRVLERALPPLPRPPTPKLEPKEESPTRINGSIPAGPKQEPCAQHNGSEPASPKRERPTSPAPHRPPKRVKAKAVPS
Text: (§1) The following materials were purchased from commercial vendors for the sirtuin inhibition assay and the pronase digestion assay, and were used as received without further treatment. Sigma-Aldrich China: the active human recombinant His6-SIRT1, Trizma, Hepes, β-NAD^+, a 1.0 M solution of MgCl2 (molecular-biology grade), the pronase from Streptomyces griseus; Cayman Chemical (Ann Arbor, Michigan, USA): the active human recombinant GST-SIRT1, the active human recombinant His6-SIRT2, the active human recombinant His6-SIRT3, the active human recombinant GST-SIRT5, the active human recombinant His6-SIRT6; TCI Shanghai: D,L-dithiothreitol (DTT); Alfa Aesar China: NaCl, KCl.
(§2) The peptide substrates prepared and used in the sirtuin inhibition assay were: the SIRT1/2/3 substrate H2N-HK-[N^ε-acetyl-lysine]-LM-COOH corresponding to amino acids 380–384 of the human p53 protein acetylated at K^382; the SIRT5 substrate CH3CONH-AR-[N^ε-succinyl-lysine]-ST-CONH2 corresponding to amino acids 7–11 of the human histone H3 protein succinylated at K^9; the SIRT6 substrate H2N-EALPK-[N^ε-myristoyl-lysine]-TGGPQ-CONH2 corresponding to amino acids 15–25 of the human tumor necrosis factor α (TNFα) myristoylated at K^20.
(§3) The HPLC-based sirtuin inhibition assay that our laboratory has been using over past several years was employed in the current study and was performed as described previously. […]

[2] = biological target: T2, human recombinant His6-SIRT1 or GST-SIRT1 (Homo sapiens, UniProt Q96EB6); assay: HPLC-based in vitro sirtuin inhibition assay, SIRT1; assay type: biochemical; settings: SIRT1 320 nM, 0.5 mM β-NAD+, 0.3 mM acetyl-lysine p53 peptide substrate, 37 °C, 10 min; Dixon plots
T2 construct: His6 or GST (one of the two); purchased Sigma-Aldrich China (His6-SIRT1) or Cayman Chemical (GST-SIRT1)
T2 sequence (Q96EB6 1-747): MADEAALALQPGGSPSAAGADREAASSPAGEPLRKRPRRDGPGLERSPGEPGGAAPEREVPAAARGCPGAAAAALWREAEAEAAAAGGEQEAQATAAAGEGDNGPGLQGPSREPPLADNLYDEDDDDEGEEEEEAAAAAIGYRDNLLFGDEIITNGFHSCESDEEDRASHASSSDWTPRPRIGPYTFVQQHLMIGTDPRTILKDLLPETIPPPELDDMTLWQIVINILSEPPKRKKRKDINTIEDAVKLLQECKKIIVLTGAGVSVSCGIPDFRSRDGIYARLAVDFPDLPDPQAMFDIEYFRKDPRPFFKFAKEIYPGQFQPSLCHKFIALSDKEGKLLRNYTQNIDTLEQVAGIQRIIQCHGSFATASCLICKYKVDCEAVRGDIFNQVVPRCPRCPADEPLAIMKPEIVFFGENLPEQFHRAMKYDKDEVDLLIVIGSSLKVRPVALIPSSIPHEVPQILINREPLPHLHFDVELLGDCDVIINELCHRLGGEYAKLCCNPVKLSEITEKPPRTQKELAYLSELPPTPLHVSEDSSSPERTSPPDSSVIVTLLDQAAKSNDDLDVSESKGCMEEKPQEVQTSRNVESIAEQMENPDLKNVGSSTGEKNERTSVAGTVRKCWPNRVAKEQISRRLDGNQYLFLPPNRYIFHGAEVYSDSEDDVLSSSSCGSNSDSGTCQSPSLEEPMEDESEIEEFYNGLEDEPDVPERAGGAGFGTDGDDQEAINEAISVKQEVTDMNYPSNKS
Text: as §1, §2, §3

[3] = biological target: T3, human recombinant His6-SIRT3 (Homo sapiens, UniProt Q9NTG7); assay: HPLC-based in vitro sirtuin inhibition assay, SIRT3; assay type: biochemical; settings: His6-SIRT3 320 nM, 3.5 mM β-NAD+, 0.105 mM acetyl-lysine p53 peptide substrate, 37 °C, 10 min; Dixon plots
T3 construct: purchased Cayman Chemical (Ann Arbor, Michigan, USA)
T3 sequence (Q9NTG7 1-399): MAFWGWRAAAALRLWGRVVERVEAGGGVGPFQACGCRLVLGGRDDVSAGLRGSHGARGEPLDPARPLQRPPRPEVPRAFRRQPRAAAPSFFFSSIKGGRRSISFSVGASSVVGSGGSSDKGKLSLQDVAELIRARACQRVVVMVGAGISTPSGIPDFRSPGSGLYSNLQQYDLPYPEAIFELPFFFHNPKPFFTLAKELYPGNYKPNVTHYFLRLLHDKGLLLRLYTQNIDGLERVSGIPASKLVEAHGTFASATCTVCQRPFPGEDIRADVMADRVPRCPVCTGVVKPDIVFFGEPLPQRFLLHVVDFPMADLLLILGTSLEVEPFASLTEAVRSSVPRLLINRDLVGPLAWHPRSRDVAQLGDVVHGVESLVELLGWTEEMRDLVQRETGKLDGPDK
Text: as §1, §2, §3

[4] = biological target: T4, human recombinant GST-SIRT5 (Homo sapiens, UniProt Q9NXA8); assay: HPLC-based in vitro sirtuin inhibition assay, SIRT5-catalyzed deacylation (desuccinylation); assay type: biochemical; settings: GST-SIRT5 370 nM, 0.8 mM β-NAD+, 0.88 mM succinyl-lysine H3 peptide substrate, 37 °C, 5 min; estimated from Dixon plots
T4 construct: purchased Cayman Chemical (Ann Arbor, Michigan, USA)
T4 sequence (Q9NXA8 37-310): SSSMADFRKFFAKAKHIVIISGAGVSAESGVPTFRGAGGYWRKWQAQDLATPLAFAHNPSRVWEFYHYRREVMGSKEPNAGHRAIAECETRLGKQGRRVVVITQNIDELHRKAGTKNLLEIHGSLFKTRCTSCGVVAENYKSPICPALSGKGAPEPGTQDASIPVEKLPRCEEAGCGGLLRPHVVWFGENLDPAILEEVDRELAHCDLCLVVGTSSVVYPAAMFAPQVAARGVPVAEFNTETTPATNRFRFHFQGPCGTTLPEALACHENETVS
Text: as §1, §2, §3

[5] = biological target: T5, human recombinant His6-SIRT2 (Homo sapiens, UniProt Q8IXJ6); assay: HPLC-based in vitro sirtuin inhibition assay, SIRT2-catalyzed deacetylation; assay type: biochemical; settings: His6-SIRT2 309 nM, 0.5 mM β-NAD+, 0.39 mM acetyl-lysine p53 peptide substrate, 37 °C, 12 min; Dixon plots
T5 construct: purchased Cayman Chemical (Ann Arbor, Michigan, USA)
T5 sequence (Q8IXJ6 1-389): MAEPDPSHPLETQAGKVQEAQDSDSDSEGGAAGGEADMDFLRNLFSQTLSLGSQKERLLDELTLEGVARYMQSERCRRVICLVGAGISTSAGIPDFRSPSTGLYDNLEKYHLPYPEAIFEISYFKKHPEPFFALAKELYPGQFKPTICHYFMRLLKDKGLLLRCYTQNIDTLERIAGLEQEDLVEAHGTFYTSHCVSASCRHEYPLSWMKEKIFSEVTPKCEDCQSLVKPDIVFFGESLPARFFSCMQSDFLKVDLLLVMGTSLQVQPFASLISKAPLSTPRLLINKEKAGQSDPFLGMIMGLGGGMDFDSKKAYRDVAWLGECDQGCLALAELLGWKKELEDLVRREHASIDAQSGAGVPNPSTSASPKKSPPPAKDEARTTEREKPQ
Text: as §1, §2, §3

SIRT5 = SIRT5 desuccinylation assay; cited from earlier work
SIRT2 = settings: cited from earlier work
SIRT1 = settings: cited from earlier work
SIRT3 = settings: cited from earlier work

Row | Molecule | IC50 [1] [µM] | IC50 SIRT1 [2] [µM] | IC50 [3] [µM] | IC50 [4] | IC50 [5] | IC50 (SIRT5) [µM] | IC50 (SIRT2) [µM] | IC50 (SIRT1) [µM] | IC50 (SIRT3) [µM]
1 | CC(=O)N[C@@H](C)C(=O)N[C@@H](CCCNC(=N)N)C(=O)N[C@@H](CCCCNC(=S)NCCC(=O)O)C(=O)N[C@@H](CO)C(=O)N[C@H](C(N)=O)[C@@H](C)O [Compound 6] (Ac-AR[X1]ST-NH2) | > 1000 | >1000 | > 1000 | 7.6 ± 1.5 µM | 96.4 ± 18.5 µM |  |  |  | 
2 | CC(=O)N[C@H]1CCCCNC(=O)CNC(=O)CCCCCCC(=O)NCC(=O)NCCCC[C@@H](C(=O)N[C@H](C(N)=O)[C@@H](C)O)NC(=O)[C@H](CCCCNC(=S)NCCC(=O)O)NC(=O)[C@H](CCCNC(=N)N)NC1=O [Compound 4] (Ac-KR[X1]KT-NH2; linker 1-4 via Suberoyl(Gly)2) |  |  |  | ~6 µM and 6 µM | ~9.2 µM and 9.2 µM |  |  |  | 
3 | CH3CONH-AR-(N^ε-thiosuccinyl-lysine)-ST-CONH2 |  |  |  |  |  | ~40 |  |  | 
4 | C=CCN1C(=O)/C(=C/c2ccc(-c3cccc(Cl)c3Cl)o2)C(=O)NC1=S [Compound 3] |  |  |  |  |  | 2.3 | 9.7 | 5.3 | > 50
5 | CC(=O)N[C@H]1CCCCNC(=O)CCCCCCC(=O)NCCCC[C@@H](C(=O)N[C@H](C(N)=O)[C@@H](C)O)NC(=O)[C@H](CCCCNC(=S)NCCC(=O)O)NC(=O)[C@H](CCCNC(=N)N)NC1=O [Compound 5] (Ac-KR[X1]KT-NH2; linker 1-4 via Suberoyl) | > 200 | >1000 | > 200 | ~7.5 µM and 7.5 µM | > 1000 µM |  |  |  | 
